Reference: PubChem BioAssay AID192 (DTP/NCI, 2004)
Several values for one entry are separate records, joined by “and”; a condition that tells them apart may be missing. Equal entries are not always repeated. Toxic doses and inconclusive results are not listed. Rule for the calls: active = survival T/C of 150% or more; inactive = T/C below 125% in these data.

System: BDF1 mice, B16 melanoma ip, median survival T/C
Test: NCI In Vivo Anticancer Drug Screen. Data for tumor model B16 Melanoma (intraperitoneal) in B6D2F1 (BDF1) mice
Conditions: endpoint: median survival time, higher = longer survival
In short: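 Tumor-bearing mice received test compound or vehicle. Survival or tumor size was then measured in both groups. The treated-group figure was divided by the control-group figure.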

[1] = dose: 25.0 mg/kg/injection, schedule: Q01DX009 (ip), vehicle: saline with Tween-80
[2] = dose: 50.0 mg/kg/injection, schedule: Q01DX009 (ip), vehicle: saline with Tween-80
[3] = dose: 100.0 mg/kg/injection, schedule: Q01DX009 (ip), vehicle: saline with Tween-80
[4] = dose: 50.0 mg/kg/injection, schedule: Q01DX009 (ip), vehicle: Klucel (hydroxypropylcellulose) (HPC)
[5] = dose: 100.0 mg/kg/injection, schedule: Q01DX009 (ip), vehicle: Klucel (hydroxypropylcellulose) (HPC)
[6] = dose: 200.0 mg/kg/injection, schedule: Q01DX009 (ip), vehicle: Klucel (hydroxypropylcellulose) (HPC)
[7] = dose: 12.5 mg/kg/injection, schedule: Q01DX009 (ip), vehicle: saline with Tween-80
[8] = dose: 200.0 mg/kg/injection, schedule: Q01DX009 (ip), vehicle: saline with Tween-80
[9] = dose: 400.0 mg/kg/injection, schedule: Q01DX009 (ip), vehicle: saline with Tween-80

Measured: T/C

CC1(C)C2CCC([CH2][Hg][Cl])C1C2 (stereo unspecified)
inactive: dose: 2.5 mg/kg/injection, schedule: Q01DX009 (ip), vehicle: saline with Tween-80 87 % of control | dose: 5.0 mg/kg/injection, schedule: Q01DX009 (ip), vehicle: saline with Tween-80 103 % of control | dose: 10.0 mg/kg/injection, schedule: Q01DX009 (ip), vehicle: saline with Tween-80 87 % of control | dose: 20.0 mg/kg/injection, schedule: Q01DX009 (ip), vehicle: saline with Tween-80 96 % of control

CCCCCCCCCCCCCCCCC/C=C1\CC(=O)OC1=O
inactive: [1] 97 % of control and 99 % of control | [2] 91 % of control and 105 % of control | [3] 92 % of control

C1CN2CN3CCN(CN1C3)C2
inactive: dose: 12.5 mg/kg/injection, schedule: Q01DX009 (ip), vehicle: saline 99 % of control and 114 % of control | dose: 25.0 mg/kg/injection, schedule: Q01DX009 (ip), vehicle: saline 103 % of control and 113 % of control | dose: 50.0 mg/kg/injection, schedule: Q01DX009 (ip), vehicle: saline 123 % of control

C=C(NC(=O)C(=C)NC(=O)c1csc(C2=NC3c4csc(n4)C4NC(=O)c5csc(n5)C(C(C)(O)C(C)O)NC(=O)C5CSC(=N5)/C(=C/C)NC(=O)C(C(C)O)NC(=O)c5csc(n5)C3(CC2)NC(=O)C(C)NC(=O)C(=C)NC(=O)C(C)NC(=O)C(C(C)CC)NC2C=Cc3c(C(C)O)cc(nc3C2O)C(=O)OC4C)n1)C(N)=O (stereo unspecified)
inactive: [4] 106 % of control | [5] 109 % of control | [6] 112 % of control

COc1ccc(C(N)=O)cc1N=NN(C)C
inactive: dose: 3.12 mg/kg/injection, schedule: Q01DX009 (ip), vehicle: Klucel (hydroxypropylcellulose) (HPC) 111 % of control and 113 % of control | dose: 6.25 mg/kg/injection, schedule: Q01DX009 (ip), vehicle: Klucel (hydroxypropylcellulose) (HPC) 109 % of control and 110 % of control | dose: 12.5 mg/kg/injection, schedule: Q01DX009 (ip), vehicle: Klucel (hydroxypropylcellulose) (HPC) 110 % of control and 111 % of control | dose: 25.0 mg/kg/injection, schedule: Q01DX009 (ip), vehicle: Klucel (hydroxypropylcellulose) (HPC) 115 % of control and 123 % of control | [4] 117 % of control

O=C(O)c1ccc(S(=O)(=O)N(Cl)Cl)cc1
inactive: dose: 100.0 mg/kg/injection, schedule: Q01DX009 (ip), vehicle: saline 110 % of control | dose: 200.0 mg/kg/injection, schedule: Q01DX009 (ip), vehicle: saline 113 % of control | dose: 400.0 mg/kg/injection, schedule: Q01DX009 (ip), vehicle: saline 104 % of control

C=C(Cl)CN(CCCC(=O)O)c1cccc(OC)c1
inactive: dose: 100.0 mg/kg/injection, schedule: Q04DX003 (ip), vehicle: other 104 % of control | dose: 200.0 mg/kg/injection, schedule: Q04DX003 (ip), vehicle: other 96 % of control | dose: 400.0 mg/kg/injection, schedule: Q04DX003 (ip), vehicle: other 94 % of control

Cc1ccc(C)c(CCN)c1
inactive: [7] 104 % of control | [1] 97 % of control

CC(C)(O)C1OCC(C2CCC3(C)C4=CCC5C(C)(C)C(O)CCC5(C)C4CCC23C)CC1O (stereo unspecified)
inactive: dose: 2.5 mg/kg/injection, schedule: Q01DX009 (ip), vehicle: Klucel (hydroxypropylcellulose) (HPC) 102 % of control | dose: 5.0 mg/kg/injection, schedule: Q01DX009 (ip), vehicle: Klucel (hydroxypropylcellulose) (HPC) 98 % of control | dose: 10.0 mg/kg/injection, schedule: Q01DX009 (ip), vehicle: Klucel (hydroxypropylcellulose) (HPC) 89 % of control

COc1ccc(OC)c(/C=C/c2ccnc3ccccc23)c1
inactive: dose: 50.0 mg/kg/injection, schedule: Q01DX009 (ip), vehicle: saline sonified 113 % of control | dose: 100.0 mg/kg/injection, schedule: Q01DX009 (ip), vehicle: saline sonified 107 % of control | dose: 200.0 mg/kg/injection, schedule: Q01DX009 (ip), vehicle: saline sonified 113 % of control

O=C(CCl)Oc1cccc([N+](=O)[O-])c1
inactive: [1] 107 % of control | [2] 102 % of control | [3] 101 % of control

Clc1ccc(/C=N\N=C\c2ccc(Cl)c(Cl)c2)cc1Cl
inactive: [5] 90 % of control | [6] 90 % of control

CCOC(=O)C1CN(S(=O)(=O)c2ccc(C)cc2)c2ccccc2C(=O)C1/C(=C/C(=O)OC)C(=O)OC (stereo unspecified)
inactive: dose: 100.0 mg/kg/injection, schedule: Q04DX003 (ip), vehicle: Klucel (hydroxypropylcellulose) (HPC) 92 % of control | dose: 200.0 mg/kg/injection, schedule: Q04DX003 (ip), vehicle: Klucel (hydroxypropylcellulose) (HPC) 90 % of control | dose: 400.0 mg/kg/injection, schedule: Q04DX003 (ip), vehicle: Klucel (hydroxypropylcellulose) (HPC) 88 % of control

C=CCN(C(=O)OCC)c1ccccc1
inactive: [5] 100 % of control | [6] 97 % of control

CCCCC(SC(CC)(C(N)=O)c1ccccc1)C(=O)O (stereo unspecified)
inactive: [2] 100 % of control | [3] 99 % of control | [8] 92 % of control | [9] 90 % of control

Cc1ccc(Cl)cc1NS(=O)(=O)c1ccccc1
inactive: [3] 90 % of control | [8] 95 % of control | [9] 90 % of control

COc1cccc2c1C(=O)c1c(O)c3c(c(O)c1C2=O)CC(O)(C(C)=O)CC3OC1CC(N)C(O)C(C)O1 (stereo unspecified)
active: dose: 2.5 mg/kg/injection, schedule: Q01DX007 (ip), vehicle: water 154 % of control | dose: 2.5 mg/kg/injection, schedule: Q01DX009 (ip), vehicle: water 163 % of control | dose: 5.0 mg/kg/injection, schedule: Q01DX007 (ip), vehicle: water 154 % of control | dose: 5.0 mg/kg/injection, schedule: Q01DX009 (ip), vehicle: water 190 % of control | dose: 5.8 mg/kg/injection, schedule: Q01DX009 (ip), vehicle: saline 258 % of control | dose: 10.0 mg/kg/injection, schedule: Q01DX007 (ip), vehicle: water 163 % of control | dose: 10.0 mg/kg/injection, schedule: Q01DX009 (ip), vehicle: water 218 % of control | dose: 20.0 mg/kg/injection, schedule: Q01DX007 (ip), vehicle: water 339 % of control | dose: 20.0 mg/kg/injection, schedule: Q01DX009 (ip), vehicle: water 231 % of control | dose: 23.4 mg/kg/injection, schedule: Q04DX003 (ip), vehicle: saline 212 % of control | dose: 46.8 mg/kg/injection, schedule: Q04DX003 (ip), vehicle: saline 275 % of control | dose: 93.6 mg/kg/injection, schedule: Q04DX003 (ip), vehicle: saline 275 % of control
116 % of control and 267 % of control: dose: 23.4 mg/kg/injection, schedule: Q01DX009 (ip), vehicle: saline
122 % of control and 267 % of control: dose: 11.7 mg/kg/injection, schedule: Q01DX009 (ip), vehicle: saline

Cn1c2nc3ccccc3c-2nc2ccccc21
inactive: dose: 1.56 mg/kg/injection, schedule: Q01DX009 (ip), vehicle: water 95 % of control | dose: 3.13 mg/kg/injection, schedule: Q01DX009 (ip), vehicle: water 96 % of control | dose: 6.25 mg/kg/injection, schedule: Q01DX009 (ip), vehicle: other 105 % of control | dose: 6.25 mg/kg/injection, schedule: Q01DX009 (ip), vehicle: water 90 % of control | dose: 12.5 mg/kg/injection, schedule: Q01DX009 (ip), vehicle: other 104 % of control | dose: 25.0 mg/kg/injection, schedule: Q01DX009 (ip), vehicle: other 97 % of control | [4] 87 % of control | dose: 50.0 mg/kg/injection, schedule: Q01DX009 (ip), vehicle: other 92 % of control

CC(C)=CC1C(C(=O)OCc2ccc(C)cc2C)C1(C)C (stereo unspecified)
inactive: dose: 6.25 mg/kg/injection, schedule: Q01DX009 (ip), vehicle: saline with Tween-80 99 % of control | [7] 104 % of control | [1] 110 % of control | [2] 103 % of control

O=C(O)c1c(Cl)cccc1Cl
inactive: [7] 105 % of control | [1] 95 % of control | dose: 25.0 mg/kg/injection, schedule: Q04DX003 (ip), vehicle: saline with Tween-80 105 % of control | dose: 50.0 mg/kg/injection, schedule: Q04DX003 (ip), vehicle: saline with Tween-80 97 % of control

CCC[CH2][Sn]([CH2]CCC)([CH2]CCC)[O]C(=O)CC[S][Sn]([CH2]CCC)([CH2]CCC)[CH2]CCC
inactive: dose: 1.0 mg/kg/injection, schedule: Q01DX009 (ip), vehicle: saline with Tween-80 92 % of control | dose: 2.0 mg/kg/injection, schedule: Q01DX009 (ip), vehicle: saline with Tween-80 95 % of control
